Calls of active or inactive are those of the source.
How the values were obtained:
[1] = biological target: T1, Small ubiquitin-related modifier 1 (Homo sapiens, UniProt P63165); experiment: SUMO1 protein interaction blockers, potency – biochemical, fluorescence polarization, uHTS hits, dose response (AID 624382); format: functional; conditions: read-out: IC50_Mean
[2] = biological target: T1, Small ubiquitin-related modifier 1; experiment: SUMO1 protein-protein binding blockers, potency – biochemical, FRET, dose response (AID 624383); format: functional; conditions: read-out: IC50_Mean
[3] = biological target: Induced myeloid leukemia cell differentiation protein Mcl-1 (Homo sapiens, UniProt Q07820); format: functional
Chain of Induced myeloid leukemia cell differentiation protein Mcl-1 (Q07820 whole entry): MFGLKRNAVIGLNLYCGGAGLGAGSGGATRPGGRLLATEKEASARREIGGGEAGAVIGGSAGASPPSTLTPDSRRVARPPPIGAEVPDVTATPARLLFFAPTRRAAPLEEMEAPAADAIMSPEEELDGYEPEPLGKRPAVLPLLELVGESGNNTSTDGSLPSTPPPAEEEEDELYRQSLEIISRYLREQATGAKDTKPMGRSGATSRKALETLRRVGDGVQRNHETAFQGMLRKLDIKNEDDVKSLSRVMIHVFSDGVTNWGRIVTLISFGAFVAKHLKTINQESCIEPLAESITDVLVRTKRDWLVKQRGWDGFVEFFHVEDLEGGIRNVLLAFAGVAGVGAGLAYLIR

[4] = biological target: Glucose-6-phosphate 1-dehydrogenase (Homo sapiens, UniProt P11413); experiment: inhibition of Homo sapiens G6PD, dose series – biochemical, fluorescence, selectivity assay for P. falciparum G6PD inhibitor project, dose response (AID 504792); format: functional
Chain of Glucose-6-phosphate 1-dehydrogenase (P11413 whole entry): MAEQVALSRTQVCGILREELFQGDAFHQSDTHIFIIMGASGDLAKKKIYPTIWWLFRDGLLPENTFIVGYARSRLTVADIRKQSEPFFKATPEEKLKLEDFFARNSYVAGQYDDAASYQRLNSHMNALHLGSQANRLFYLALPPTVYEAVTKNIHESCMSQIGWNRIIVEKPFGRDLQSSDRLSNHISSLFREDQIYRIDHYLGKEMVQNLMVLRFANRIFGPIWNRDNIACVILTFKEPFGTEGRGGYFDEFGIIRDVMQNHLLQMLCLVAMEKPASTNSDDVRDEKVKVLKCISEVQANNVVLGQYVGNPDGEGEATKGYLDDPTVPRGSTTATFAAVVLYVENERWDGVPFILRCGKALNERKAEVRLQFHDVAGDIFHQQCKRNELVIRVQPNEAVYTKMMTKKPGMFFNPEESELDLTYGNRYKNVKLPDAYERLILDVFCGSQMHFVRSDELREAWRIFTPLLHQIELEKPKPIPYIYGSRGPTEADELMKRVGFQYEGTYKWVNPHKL

[5] = biological target: T2, Replicative DNA helicase DnaB (Mycobacterium tuberculosis, UniProt P9WMR3); experiment: DnaB intein splicing inhibitors, dose response, biochemical, cell-free fluorescence (AID 449749); format: functional
T2 sequence (P9WMR3 whole entry): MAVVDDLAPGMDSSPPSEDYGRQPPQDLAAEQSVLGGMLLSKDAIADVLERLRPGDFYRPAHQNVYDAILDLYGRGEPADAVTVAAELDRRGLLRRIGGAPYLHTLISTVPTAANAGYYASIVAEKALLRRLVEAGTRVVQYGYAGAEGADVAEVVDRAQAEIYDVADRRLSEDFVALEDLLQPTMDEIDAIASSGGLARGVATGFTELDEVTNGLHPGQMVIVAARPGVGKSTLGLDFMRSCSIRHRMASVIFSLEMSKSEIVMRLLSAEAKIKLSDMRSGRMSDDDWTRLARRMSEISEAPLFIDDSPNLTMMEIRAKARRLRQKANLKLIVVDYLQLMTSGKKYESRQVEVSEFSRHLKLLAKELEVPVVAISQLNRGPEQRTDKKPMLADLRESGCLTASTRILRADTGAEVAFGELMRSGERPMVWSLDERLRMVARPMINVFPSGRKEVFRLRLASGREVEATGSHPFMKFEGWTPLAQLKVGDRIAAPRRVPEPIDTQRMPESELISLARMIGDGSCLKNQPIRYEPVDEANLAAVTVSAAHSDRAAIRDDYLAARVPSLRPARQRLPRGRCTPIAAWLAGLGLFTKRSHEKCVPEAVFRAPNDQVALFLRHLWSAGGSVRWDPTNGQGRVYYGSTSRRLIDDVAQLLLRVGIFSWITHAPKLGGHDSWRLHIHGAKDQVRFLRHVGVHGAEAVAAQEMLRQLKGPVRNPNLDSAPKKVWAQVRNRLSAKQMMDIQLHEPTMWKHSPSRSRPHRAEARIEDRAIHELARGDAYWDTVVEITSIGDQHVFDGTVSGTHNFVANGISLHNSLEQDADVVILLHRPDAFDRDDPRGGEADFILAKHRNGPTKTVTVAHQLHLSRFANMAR

Protein RecA = biological target: T3, Protein RecA (Mycobacterium tuberculosis, UniProt P9WHJ3); experiment: Fluorescence Cell-Free Homogeneous Dose Retest to Identify Inhibitors of RecA-Intein Splicing Activity. [Related pubchem assays (depositor defined):AID2097, AID2223, AID489010, AID492950]; format: functional
T3 sequence (P9WHJ3 whole entry): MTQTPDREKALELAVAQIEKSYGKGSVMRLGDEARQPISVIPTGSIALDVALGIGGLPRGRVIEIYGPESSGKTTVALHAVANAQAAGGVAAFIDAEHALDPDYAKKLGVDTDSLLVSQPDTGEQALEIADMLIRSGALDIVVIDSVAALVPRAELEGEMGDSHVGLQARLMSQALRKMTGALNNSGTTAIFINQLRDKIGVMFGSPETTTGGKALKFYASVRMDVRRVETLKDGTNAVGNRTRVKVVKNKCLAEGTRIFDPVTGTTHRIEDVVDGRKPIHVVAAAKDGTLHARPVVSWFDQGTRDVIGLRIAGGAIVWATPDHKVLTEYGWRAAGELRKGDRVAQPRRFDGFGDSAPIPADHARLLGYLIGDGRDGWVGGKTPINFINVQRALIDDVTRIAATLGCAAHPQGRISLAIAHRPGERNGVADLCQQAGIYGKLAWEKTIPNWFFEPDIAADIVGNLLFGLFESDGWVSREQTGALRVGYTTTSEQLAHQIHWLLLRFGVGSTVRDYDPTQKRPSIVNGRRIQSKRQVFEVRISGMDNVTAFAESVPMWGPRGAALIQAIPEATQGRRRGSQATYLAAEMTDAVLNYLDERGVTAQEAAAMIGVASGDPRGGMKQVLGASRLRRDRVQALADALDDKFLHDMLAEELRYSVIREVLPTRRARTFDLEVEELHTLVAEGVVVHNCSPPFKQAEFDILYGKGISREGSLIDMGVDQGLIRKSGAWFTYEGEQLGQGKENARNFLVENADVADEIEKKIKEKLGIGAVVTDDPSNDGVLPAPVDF

[6] = biological target: T4, Rac GTPase-activating protein 1 (Homo sapiens, UniProt Q9H0H5); experiment: blockers of MgcRacGAP-driven Rac1 GTP hydrolysis – biochemical, ADP Hunter fluorescence, primary and confirmatory, confirmation (AID 624330); format: functional
T4 sequence (Q9H0H5 whole entry): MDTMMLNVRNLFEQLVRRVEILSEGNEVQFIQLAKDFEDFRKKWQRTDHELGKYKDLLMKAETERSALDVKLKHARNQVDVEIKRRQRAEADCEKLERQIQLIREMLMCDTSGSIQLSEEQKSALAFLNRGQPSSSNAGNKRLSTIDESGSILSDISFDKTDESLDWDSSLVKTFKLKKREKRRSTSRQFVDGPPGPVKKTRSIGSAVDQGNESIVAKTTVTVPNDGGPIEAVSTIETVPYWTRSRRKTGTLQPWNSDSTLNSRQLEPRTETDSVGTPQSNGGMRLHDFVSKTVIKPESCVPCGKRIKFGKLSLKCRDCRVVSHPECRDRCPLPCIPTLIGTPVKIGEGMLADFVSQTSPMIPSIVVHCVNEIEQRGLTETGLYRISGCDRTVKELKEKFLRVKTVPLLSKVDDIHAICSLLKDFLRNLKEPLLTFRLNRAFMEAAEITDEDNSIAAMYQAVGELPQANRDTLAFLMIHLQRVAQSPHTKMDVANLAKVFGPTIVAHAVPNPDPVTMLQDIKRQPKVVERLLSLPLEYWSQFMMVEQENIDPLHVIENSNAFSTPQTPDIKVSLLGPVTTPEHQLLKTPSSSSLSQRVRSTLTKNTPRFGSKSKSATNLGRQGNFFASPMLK

[7] = bead-based luminescence quenchers, dual-tagged ARNT – biochemical, AlphaScreen, cherry-pick, artefact control for ARNT-TACC3 interaction inhibitor project, dose response (AID 651705); format: functional;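 also: AlphaScreen bead proximity signal that flags compounds interfering with the detection technology; potency reflects signal decrease which marks the compound as an assay artifact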
[8] = biological target: T5, Sentrin-specific protease 8 (Homo sapiens, UniProt Q96LD8); format: functional
T5 sequence (Q96LD8 whole entry): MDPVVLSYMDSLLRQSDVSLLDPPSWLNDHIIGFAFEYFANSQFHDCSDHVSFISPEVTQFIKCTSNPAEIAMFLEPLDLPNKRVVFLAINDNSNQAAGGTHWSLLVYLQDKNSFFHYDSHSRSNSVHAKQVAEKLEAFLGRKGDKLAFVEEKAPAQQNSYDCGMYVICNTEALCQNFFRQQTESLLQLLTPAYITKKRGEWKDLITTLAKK

[9] = biological target: T5, Sentrin-specific protease 8; format: functional; remark: listed apart in the source
[10] = biological target: T6, Corticotropin-releasing factor receptor 2/Corticotropin-releasing factor-binding protein (Homo sapiens, UniProt P24387+Q13324); experiment: Dose Response confirmation of uHTS hits for small molecule antagonists of the CRF-binding protein and CRF-R2 receptor complex.; format: functional; conditions: read-out: IC50_Mean
T6 sequence (Q13324 whole entry): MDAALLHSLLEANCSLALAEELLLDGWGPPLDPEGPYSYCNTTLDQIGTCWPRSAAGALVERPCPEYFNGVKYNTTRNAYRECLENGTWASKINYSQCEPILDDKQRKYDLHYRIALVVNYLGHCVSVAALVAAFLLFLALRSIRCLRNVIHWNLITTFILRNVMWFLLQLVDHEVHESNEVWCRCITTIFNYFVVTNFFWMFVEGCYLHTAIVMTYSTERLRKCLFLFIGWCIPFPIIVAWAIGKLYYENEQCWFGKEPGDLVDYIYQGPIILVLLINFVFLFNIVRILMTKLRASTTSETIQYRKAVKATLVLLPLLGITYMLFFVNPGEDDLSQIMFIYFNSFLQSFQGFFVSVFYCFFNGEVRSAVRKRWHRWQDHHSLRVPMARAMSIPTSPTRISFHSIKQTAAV
T6 sequence (P24387 whole entry): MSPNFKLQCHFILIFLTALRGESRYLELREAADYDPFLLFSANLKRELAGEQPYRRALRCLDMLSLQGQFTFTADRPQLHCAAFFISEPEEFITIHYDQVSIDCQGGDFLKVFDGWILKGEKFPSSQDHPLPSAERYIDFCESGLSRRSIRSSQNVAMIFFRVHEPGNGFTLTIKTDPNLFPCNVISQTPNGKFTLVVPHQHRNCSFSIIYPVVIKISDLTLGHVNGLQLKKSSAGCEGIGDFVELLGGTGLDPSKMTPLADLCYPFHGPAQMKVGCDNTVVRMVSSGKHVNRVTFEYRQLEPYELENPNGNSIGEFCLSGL

[11] = biological target: T6, Corticotropin-releasing factor receptor 2/Corticotropin-releasing factor-binding protein; experiment: activators of CRF receptor 2 with binding protein – uHTS hits, confirmation (AID 602473); format: functional; conditions: read-out: EC50_Mean
[12] = blockers of CRF-binding protein–CRF-R2 complex – cell-based, uHTS hits, 384-well, dose response (AID 651639); format: functional, Homo sapiens; conditions: read-out: IC50_Mean
Cytochrome P450 2C9 = Cytochrome P450 2C9 (Homo sapiens, UniProt P11712)
Chain of Cytochrome P450 2C9 (P11712 whole entry): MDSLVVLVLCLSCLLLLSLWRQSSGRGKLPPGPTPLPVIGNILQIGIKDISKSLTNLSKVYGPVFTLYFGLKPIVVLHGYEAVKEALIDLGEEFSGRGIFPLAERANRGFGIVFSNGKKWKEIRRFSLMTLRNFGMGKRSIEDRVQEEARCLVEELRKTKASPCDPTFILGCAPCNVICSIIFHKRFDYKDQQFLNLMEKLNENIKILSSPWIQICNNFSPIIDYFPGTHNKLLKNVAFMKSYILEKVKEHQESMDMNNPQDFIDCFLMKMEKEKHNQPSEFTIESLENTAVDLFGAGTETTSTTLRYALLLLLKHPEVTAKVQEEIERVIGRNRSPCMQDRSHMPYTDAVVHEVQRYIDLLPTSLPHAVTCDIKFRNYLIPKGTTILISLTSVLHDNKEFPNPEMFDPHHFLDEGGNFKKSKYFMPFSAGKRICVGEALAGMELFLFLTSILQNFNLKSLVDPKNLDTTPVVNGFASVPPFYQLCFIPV

cells [13] = format: functional, cell-based
cells [14] = format: functional, cell-based; remark: listed apart in the source
Streptokinase A = biological target: T7, Streptokinase A (Streptococcus pyogenes serotype M1, UniProt P10520); experiment: viability-normalized secreted streptokinase activity reduction – plasminogen activation absorbance, OD405, dose response (AID 1914); format: functional, Streptococcus pyogenes M1 GAS;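 also: secreted streptokinase activity via plasminogen activation per viability signal from cell pellet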
T7 sequence (P10520 whole entry): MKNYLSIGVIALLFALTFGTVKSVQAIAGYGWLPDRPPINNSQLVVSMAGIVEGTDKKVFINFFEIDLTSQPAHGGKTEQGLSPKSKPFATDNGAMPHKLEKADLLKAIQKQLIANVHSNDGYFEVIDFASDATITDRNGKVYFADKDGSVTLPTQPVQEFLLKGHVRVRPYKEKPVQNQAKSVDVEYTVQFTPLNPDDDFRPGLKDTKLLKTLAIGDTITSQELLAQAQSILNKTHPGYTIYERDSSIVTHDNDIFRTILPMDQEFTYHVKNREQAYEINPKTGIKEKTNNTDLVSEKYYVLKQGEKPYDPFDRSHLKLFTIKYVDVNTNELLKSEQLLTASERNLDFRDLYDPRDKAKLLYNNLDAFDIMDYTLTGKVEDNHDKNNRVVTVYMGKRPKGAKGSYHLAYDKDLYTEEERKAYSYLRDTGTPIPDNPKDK

Streptococcus = experiment: GAS UMAA2166 growth inhibition – luminescence, BacTiterGlo, counter-screen for streptokinase expression inhibitor project, dose response (AID 1915); format: functional, organism-based;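 also: potency for reduction of bacterial viability or growth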
SUMO-activating enzyme = SUMO-activating enzyme (Homo sapiens, UniProt Q9UBT2); experiment: blockers of UBC9-mediated SUMO conjugation – biochemical, AlphaScreen, SUMOylation inhibitor project, confirmation (AID 2018); format: functional
Chain of SUMO-activating enzyme (Q9UBE0 whole entry): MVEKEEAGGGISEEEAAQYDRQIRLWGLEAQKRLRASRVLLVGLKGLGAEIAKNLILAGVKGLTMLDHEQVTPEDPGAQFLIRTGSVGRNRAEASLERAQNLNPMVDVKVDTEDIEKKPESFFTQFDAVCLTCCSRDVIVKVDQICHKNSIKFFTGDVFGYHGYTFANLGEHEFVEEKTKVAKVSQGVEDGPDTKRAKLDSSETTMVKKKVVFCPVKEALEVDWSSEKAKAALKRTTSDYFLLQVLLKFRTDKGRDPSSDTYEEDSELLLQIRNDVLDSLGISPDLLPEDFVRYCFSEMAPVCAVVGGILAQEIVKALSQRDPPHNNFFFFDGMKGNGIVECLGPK
Chain of SUMO-activating enzyme (Q9UBT2 whole entry): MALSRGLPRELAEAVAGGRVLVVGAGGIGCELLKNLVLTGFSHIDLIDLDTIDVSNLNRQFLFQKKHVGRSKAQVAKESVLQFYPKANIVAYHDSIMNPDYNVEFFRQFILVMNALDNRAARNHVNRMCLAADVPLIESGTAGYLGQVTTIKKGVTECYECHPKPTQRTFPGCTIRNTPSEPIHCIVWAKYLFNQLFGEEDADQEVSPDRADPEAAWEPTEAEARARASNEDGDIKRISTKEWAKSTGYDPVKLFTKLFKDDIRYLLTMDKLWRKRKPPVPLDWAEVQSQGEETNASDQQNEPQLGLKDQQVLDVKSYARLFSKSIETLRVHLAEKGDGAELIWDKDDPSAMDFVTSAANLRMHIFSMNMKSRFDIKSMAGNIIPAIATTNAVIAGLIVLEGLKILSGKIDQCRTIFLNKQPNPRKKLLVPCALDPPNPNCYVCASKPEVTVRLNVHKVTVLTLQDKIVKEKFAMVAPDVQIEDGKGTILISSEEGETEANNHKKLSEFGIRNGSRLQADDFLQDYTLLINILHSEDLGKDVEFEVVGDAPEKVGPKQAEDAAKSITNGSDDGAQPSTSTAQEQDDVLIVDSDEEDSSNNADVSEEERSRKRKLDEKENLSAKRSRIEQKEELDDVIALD

[15] = biological target: SWI/SNF-related matrix-associated actin-dependent regulator of chromatin subfamily A member 2 (Homo sapiens, UniProt P51531); experiment: Luminescence-based cell-based high throughput dose response assay to identify activators of the function of SWI/SNF related, matrix associated, actin dependent regulator of chromatin, subfamily a, member 2 (SMARCA2, BRM).; format: functional
Chain of SWI/SNF-related matrix-associated actin-dependent regulator of chromatin subfamily A member 2 (P51531 whole entry): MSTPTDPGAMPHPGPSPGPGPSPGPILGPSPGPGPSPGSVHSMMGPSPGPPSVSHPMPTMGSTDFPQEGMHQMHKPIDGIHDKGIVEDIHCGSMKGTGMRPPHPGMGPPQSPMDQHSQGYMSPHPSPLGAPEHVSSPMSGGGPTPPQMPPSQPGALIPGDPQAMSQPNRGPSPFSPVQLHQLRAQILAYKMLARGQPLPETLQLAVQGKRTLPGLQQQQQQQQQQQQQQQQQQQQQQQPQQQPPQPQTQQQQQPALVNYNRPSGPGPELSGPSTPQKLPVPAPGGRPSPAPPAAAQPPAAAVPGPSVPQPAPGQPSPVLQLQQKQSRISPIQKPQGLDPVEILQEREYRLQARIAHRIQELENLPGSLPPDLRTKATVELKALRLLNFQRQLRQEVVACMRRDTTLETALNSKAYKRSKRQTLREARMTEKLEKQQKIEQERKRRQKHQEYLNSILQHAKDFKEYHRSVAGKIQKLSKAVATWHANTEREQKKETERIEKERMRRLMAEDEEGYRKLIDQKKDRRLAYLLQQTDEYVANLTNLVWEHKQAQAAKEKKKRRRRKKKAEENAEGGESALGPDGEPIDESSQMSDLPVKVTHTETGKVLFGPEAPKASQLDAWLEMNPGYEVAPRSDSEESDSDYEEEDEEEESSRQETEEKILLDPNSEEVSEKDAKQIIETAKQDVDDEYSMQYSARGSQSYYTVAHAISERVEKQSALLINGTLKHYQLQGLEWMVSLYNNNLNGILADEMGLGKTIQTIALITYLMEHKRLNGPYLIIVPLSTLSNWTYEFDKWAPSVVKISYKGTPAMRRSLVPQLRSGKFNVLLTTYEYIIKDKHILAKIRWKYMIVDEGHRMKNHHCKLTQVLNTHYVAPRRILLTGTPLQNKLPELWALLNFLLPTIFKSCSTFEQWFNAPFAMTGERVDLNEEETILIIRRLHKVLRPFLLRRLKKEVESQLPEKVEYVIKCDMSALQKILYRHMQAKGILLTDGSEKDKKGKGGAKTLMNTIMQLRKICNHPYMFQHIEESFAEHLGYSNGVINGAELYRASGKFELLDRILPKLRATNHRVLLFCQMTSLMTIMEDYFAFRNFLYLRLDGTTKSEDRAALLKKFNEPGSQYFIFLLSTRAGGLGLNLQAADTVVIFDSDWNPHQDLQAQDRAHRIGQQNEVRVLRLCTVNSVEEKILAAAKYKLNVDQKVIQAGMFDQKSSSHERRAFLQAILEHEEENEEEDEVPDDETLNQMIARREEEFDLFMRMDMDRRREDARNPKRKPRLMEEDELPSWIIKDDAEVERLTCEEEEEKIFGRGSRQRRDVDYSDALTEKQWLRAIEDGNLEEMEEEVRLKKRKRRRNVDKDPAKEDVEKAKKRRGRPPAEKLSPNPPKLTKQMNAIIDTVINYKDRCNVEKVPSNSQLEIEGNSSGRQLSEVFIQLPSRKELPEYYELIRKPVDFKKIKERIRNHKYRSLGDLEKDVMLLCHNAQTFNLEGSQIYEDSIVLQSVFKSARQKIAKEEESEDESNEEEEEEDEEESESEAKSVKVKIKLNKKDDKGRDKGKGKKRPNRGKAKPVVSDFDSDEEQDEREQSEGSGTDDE

[16] = Counterscreen for activators of the function of SWI/SNF related, matrix associated, actin dependent regulator of chromatin, subfamily a, member 2 (SMARCA2, BRM): Luminescence-based cell-based high throughput dose response assay to identify non-selective compounds using the VP16 reporter assay.; format: functional

T1 sequence (P63165 whole entry): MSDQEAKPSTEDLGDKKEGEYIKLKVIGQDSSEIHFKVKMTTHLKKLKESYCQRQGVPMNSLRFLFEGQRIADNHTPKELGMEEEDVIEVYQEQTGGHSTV

In the case of `COc1ccc(CCNC(=O)c2cc3c(=O)n4cccc(C)c4nc3s2)cc1OC`, the IC50 [1] is reported as > 66.6 µM (inactive) and the IC50 [2] is reported as 100 µM (inactive).
With `CCOC(=O)c1c(OCC)[nH]c2c1cc(O)c1ccccc12` the IC50 [3] was 0.935 µM (active), the IC50 [4] was > 80 µM (inactive) and the AC50 [5] was > 380 µM (inconclusive). For the same compound, the EC50 (Protein RecA) was 2.64 µM (active), the IC50 [6] was 63.5 µM (active) and the AC50 [7] was 93 µM (active).
With `COc1cc(C(c2c(C)[nH][nH]c2=O)c2c(C)[nH][nH]c2=O)ccc1OS(=O)(=O)c1ccc(C)cc1` the AC50 [5] was 0.484 µM (active), the EC50 (Protein RecA) was 0.195 µM (active) and the IC50 [8] was 20.4 µM (active). The IC50 [9] was 35.4 µM (active).
For `O=C(Nc1c(-c2ccc(Cl)cc2)n[nH]c1O)c1ccc(Br)cc1`, the IC50 [8] was 34.1 µM (active) and the IC50 [9] was 48 µM (active).
In the case of `Cc1nc(-c2c(C(F)(F)F)noc2-c2ccc(O)cc2O)cs1`, the IC50 [10] is reported as 22.7 µM (active), the EC50 [11] is reported as > 53 µM (inactive) and the IC50 [12] is reported as > 20 µM (inactive). The AC50 (Cytochrome P450 2C9) was 3.16 µM (inconclusive).
With `COc1ccc(NC(S)=NCc2cccnc2)cc1` the EC50 (cells [13]) was > 350 µM (not active), the EC50 (cells [14]) was > 350 µM (not active) and the IC50 [12] was 17.8 µM (active).
In the case of `N#C/C(=C\c1ccc(/C=C(/C#N)c2nn(CCO)c(N)c2C#N)cc1)c1nn(CCO)c(N)c1C#N`, the EC50 (cells [13]) is reported as > 350 µM (not active), the EC50 (Streptokinase A) is reported as > 150 µM (not active) and the EC50 (cells [14]) is reported as > 350 µM (not active). The EC50 (Streptococcus) was > 150 µM (not active), the IC50 [1] was > 66.6 µM (inactive) and the IC50 [2] was 2.85 µM (active).
With `COC(=O)c1nc2n(n1)C(c1ccc([N+](=O)[O-])cc1)C(C(=O)Nc1ccc(Cl)cc1)=C(C)N2` (stereo not drawn) the IC50 (SUMO-activating enzyme) was 32.4 µM (active), the IC50 [10] was 17.8 µM (active) and the EC50 [11] was > 53 µM (inactive). For the same compound, the IC50 [12] was > 20 µM (inactive).
For `COc1ccc(C2Nc3ccccc3C(=O)N2c2ccc(C)cc2)cc1COc1ccccn1` (stereo not drawn), the EC50 [15] was > 91.1 µM (inactive) and the EC50 [16] was > 91.1 µM (inactive).

— ChEMBL document CHEMBL1201862, “PubChem BioAssay data set” (2004)
